Measurements taken from publication PMC7614683, “A small molecule PI3Kα activator for cardioprotection and neuroregeneration” (Nature, 2023).

System: PI3Kα-WT A549 cells
Test: TIRF microscopy of PIP3 reporter, PI3Kα-WT A549
Type: cell-based, human
Settings: 1938, then BYL719 0.5 μM
Protocol: Phosphoinositide reporters used were GFP-PH-ARNO^I303Ex2 (PIP3 reporter[41]) and mCherry-cPH-TAPP1x3 (PI(3,4)P2 reporter[41]). TIRF microscopy allows selective imaging of the small cell volume, including the plasma membrane, directly adjacent to the coverslip onto which cells have been seeded. HeLa or A549 cells were seeded in Matrigel-coated (Corning #354230; diluted in Opti-MEM at 1:50) 8-well chamber slides (glass bottom, 1.55 refractive index; Thermo Fisher Scientific #155409) at a density of 5,000 cells/well. […]
Image analyses of total reporter intensities were performed with the Fiji open source image analysis package. The region of interest (ROI) corresponding to the footprint of the individual cell across time points were defined using minimal intensity projection to select only pixels present across all time points, following prior subtraction of camera noise (rolling ball method, radius = 500 pixels) and xy drift correction, intensity levels over time were measured. […] All other quantifications were performed using the open source software R/RStudio. The values plotted in Fig. 3d (iii) represent mean±SEM, following signal scaling to minimum and maximum values of the normalised fluorescence intensity for each time point (Fn(t)). […]

With CCN1CCN(c2ccc(Nc3cc(Nc4cccc5c4N(C(C)=O)CC5)ccn3)cc2)CC1 [Compound 1938] the “plasma membrane PIP3 (biosensor)” value was “acute plasma membrane-associated PIP3 production”.
